The record followed here is ChEMBL document CHEMBL1148874, “Design, synthesis, and anti-HIV activity of 2',3'-didehydro-2',3'-dideoxyuridine (d4U), 2',3'-dideoxyuridine (ddU) phosphoramidate 'ProTide' derivatives” (Bioorg Med Chem Lett, 2007).

Broadly, the EC50 is the concentration at which the effect is half-maximal. Low values mean an effect from little substance, high ones a need for much substance. The CC50 is the concentration at which the toxic effect on the cells reaches its halfway point. A higher CC50 goes with lower toxicity to the cells.

Where only a bound is given, the exact number is not on record here.

The subject of series [1] is Human immunodeficiency virus 1. Kind of series: Inhibition of HIV1-induced cytopathogenicity in CEM/0 cells. It is filed as functional, organism-based. Conditions: Human immunodeficiency virus 1, CCRF-CEM.
Series [2] deals with Human immunodeficiency virus 2. In words: Inhibition of HIV2-induced cytopathogenicity in CEM/0 cells. The following applies: Human immunodeficiency virus 2, CCRF-CEM. Format: functional, organism-based. On the technique in general: Damage to the host cells serves as the signal in cytopathic effect assays.
Series [3] is described as follows: Cytotoxicity against CEM/0 cells. It is filed as cell-based, CCRF-CEM. The following applies: human.

On to `O=c1ccn([C@H]2CC[C@@H](CO)O2)c(=O)[nH]1`, for which the concentration for a half-maximal effect (EC50) in series [1] and in series [2] was over 250 µM throughout. The CC50 in series [3] is over 250 µM.

For the compound `COC(=O)[C@@H](C)NP(=O)(OC[C@@H]1C=C[C@H](n2ccc(=O)[nH]c2=O)O1)Oc1ccccc1` (some centres not stated), the concentration for a half-maximal effect (EC50) was over 50 µM in series [1] and over 10 µM in series [2]. This compound also gave a CC50 in series [3] of 96.6 µM.

Consider `C[C@@H](NP(=O)(OC[C@@H]1C=C[C@H](n2ccc(=O)[nH]c2=O)O1)Oc1cccc2ccccc12)C(=O)OCc1ccccc1` (some centres not stated), for which the EC50 in series [1] and in series [2] was 25 µM in each case. The compound further yielded a half-maximal cytotoxic concentration (CC50) in series [3] of 100 µM.

As to `CCOC(=O)[C@@H](C)NP(=O)(OC[C@@H]1CC[C@H](n2ccc(=O)[nH]c2=O)O1)Oc1ccccc1` (some centres not stated), the results for the EC50 in series [1] and in series [2] were 43.3 µM and 93.3 µM, respectively. In series [3], this compound registered a cytotoxic concentration (CC50) of over 250 µM.

Regarding `CCOC(=O)[C@@H](C)NP(=O)(OC[C@@H]1C=C[C@H](n2ccc(=O)[nH]c2=O)O1)Oc1ccccc1` (some centres not stated), the EC50 in series [1] and in series [2] was over 50 µM each time. The CC50 in series [3] was determined as 212 µM.

For the compound `COC(=O)[C@@H](C)NP(=O)(OC[C@@H]1CC[C@H](n2ccc(=O)[nH]c2=O)O1)Oc1ccccc1` (some centres not stated), the 50% effective concentration (EC50) was 36.7 µM in series [1] and at least 50 µM in series [2]. The compound also displayed a CC50 in series [3] of 121 µM.

`C[C@@H](NP(=O)(OC[C@@H]1CC[C@H](n2ccc(=O)[nH]c2=O)O1)Oc1cccc2ccccc12)C(=O)OCc1ccccc1` (some centres not stated): the concentration giving a half-maximal response (EC50) in series [1] came to 15 µM; in series [2], 20 µM. This compound gave a CC50 in series [3] of 96.9 µM.

In the case of `C[C@@H](NP(=O)(OC[C@@H]1C=C[C@H](n2ccc(=O)[nH]c2=O)O1)Oc1ccccc1)C(=O)OC(C)(C)C` (some centres not stated), the EC50 in series [1] and in series [2] was over 250 µM throughout. The CC50 in series [3] was over 250 µM.

As to `C[C@@H](NP(=O)(OC[C@@H]1CC[C@H](n2ccc(=O)[nH]c2=O)O1)Oc1ccccc1)C(=O)OC(C)(C)C` (some centres not stated), the 50% effective concentration (EC50) in series [1] and in series [2] was over 250 µM in each case. For the same compound, the 50% cytotoxic concentration (CC50) in series [3] was over 250 µM.

`O=c1ccn([C@H]2C=C[C@@H](CO)O2)c(=O)[nH]1`: the EC50 in series [1] and in series [2] was over 50 µM throughout. This compound returned a CC50 in series [3] of 207 µM.

Consider `Cc1cn([C@H]2C=C[C@@H](CO)O2)c(=O)[nH]c1=O` [STAVUDINE], for which the midpoint of the response in series [2], the EC50, lay at 0.77 µM. In addition, the CC50 in series [3] is 174 µM.
